Assay results published in patent US12180187B2, “1-phenyl-5-azinylpyrazolyl-3-oxyalkyl acids and their use for controlling unwanted plant growth” (BAYER AKTIENGESELLSCHAFT, priority 2019, dated 2024).

Columns and labels:
ECHCG [1] = assay: Pre-emergence action against ECHCG, 1280 g/ha; assay type: in vivo, Echinochloa crus-galli; settings: visual scoring after about 3 weeks vs untreated controls, 100% = plants have died, 0% = like control plants
Excerpt: (§1) 1. Pre-Emergence Herbicidal Effect and Crop Plant Compatibility a) Seeds of mono- and dicotyledonous weed plants are placed in plastic pots in sandy loam soil (doubly sown with one species each of mono- or dicotyledonous weed plants per pot) and covered with soil. The compounds of the invention, formulated in the form of wettable powders (WP) or as emulsion concentrates (EC), are then applied onto the surface of the covering soil as aqueous suspension or emulsion with addition of 0.5% additive at a water application rate equivalent to 600 litres per hectare. After the treatment, the pots are placed in a greenhouse and kept under good growth conditions for the trial plants. After about 3 weeks, the effect of the preparations is scored visually in comparison with untreated controls as percentages. For example, 100% activity=the plants have died, 0% activity=like control plants. 1. Pre-Emergence Effectiveness Tables 1 to 12 below show the effects of selected compounds of the general formula (I) according to Tables 1 and 2 on various harmful plants and at an application rate corresponding to 1280 g/ha, which were obtained by the experimental procedure mentioned above.

AMARE [2] = assay: Post-emergence action against AMARE, 1.28 kg/ha; assay type: in vivo, Amaranthus retroflexus; settings: dosage 1280 g/ha, visual rating about 3 weeks after treatment vs untreated controls (100% = plants died)
Procedure: (§2) • a) Seeds of mono- and dicotyledonous weed plants are placed in plastic pots in sandy loam soil (twin sowing with one species each of mono- or dicotyledonous weed plants per pot), covered with soil and cultivated in a greenhouse under controlled growth conditions. 2 to 3 weeks after sowing, the test plants are treated at the one-leaf stage. The compounds of the invention, formulated in the form of wettable powders (WP) or as emulsion concentrates (EC), are applied to the green parts of the plants as aqueous suspension or emulsion with addition of 0.5% additive at a water application rate equivalent to 600 litres per hectare. After the test plants have been kept in the greenhouse under optimum growth conditions for about 3 weeks, the activity of the preparations is rated visually in comparison to untreated controls. For example, 100% activity=the plants have died, 0% activity=like control plants. As shown by the results, compounds of the general formula (I) of the invention, in post-emergence treatment, have very good herbicidal efficacy (90% to 100% herbicidal action) against harmful plants such as Abutilon theophrasti, Digitaria sanguinalis, Echinochloa crus-galli, Matricaria inodora, Poa annua, at an application rate of 1.28 kg of active substance per hectare.

MATIN [3] = assay: Post-emergence action against MATIN, 1.28 kg/ha; assay type: in vivo, Tripleurospermum inodorum (Matricaria inodora); settings: dosage 1280 g/ha, visual rating about 3 weeks after treatment vs untreated controls (100% = plants died)
Procedure: as §2

LOLRI = assay: Pre-emergence action against LOLRI, 1280 g/ha; assay type: in vivo, Lolium rigidum; settings: visual scoring after about 3 weeks vs untreated controls, 100% = plants have died, 0% = like control plants
Excerpt: as §1

VERPE [4] = assay: Pre-emergence action against VERPE, 1280 g/ha; assay type: in vivo, Veronica persica; settings: scored visually after about 3 weeks vs untreated controls (100% = plants have died)
Excerpt: as §1

AMARE [5] = assay: Pre-emergence action against AMARE, 1280 g/ha; assay type: in vivo, Amaranthus retroflexus; settings: scored visually after about 3 weeks vs untreated controls (100% = plants have died)
Excerpt: as §1

POAAN [6] = assay: Post-emergence action against POAAN, 1.28 kg/ha; assay type: in vivo, Poa annua; settings: dosage 1280 g/ha, visual rating about 3 weeks after treatment vs untreated controls
Procedure: as §2

ABUTH = assay: Post-emergence action against ABUTH, 1.28 kg/ha; assay type: in vivo, Abutilon theophrasti; settings: dosage 1280 g/ha, visual rating about 3 weeks after treatment vs untreated controls (100% = plants died)
Procedure: as §2

STEME [7] = assay: Pre-emergence action against STEME, 1280 g/ha; assay type: in vivo, Stellaria media; settings: scored visually after about 3 weeks vs untreated controls (100% = plants have died)
Excerpt: as §1

VERPE [8] = assay: Post-emergence action against VERPE, 1.28 kg/ha; assay type: in vivo, Veronica persica; settings: dosage 1280 g/ha, visual rating about 3 weeks after treatment vs untreated controls (100% = plants died)
Procedure: as §2

DIGSA [9] = assay: Pre-emergence action against DIGSA, 1280 g/ha; assay type: in vivo, Digitaria sanguinalis; settings: visual scoring after about 3 weeks vs untreated controls, 100% = plants have died, 0% = like control plants
Excerpt: as §1

POAAN [10] = assay: Pre-emergence action against POAAN, 1280 g/ha; assay type: in vivo, Poa annua; settings: visual scoring after about 3 weeks vs untreated controls, 100% = plants have died, 0% = like control plants
Excerpt: as §1

MATIN [11] = assay: Pre-emergence action against MATIN, 1280 g/ha; assay type: in vivo, Tripleurospermum inodorum (Matricaria inodora); settings: scored visually after about 3 weeks vs untreated controls (100% = plants have died)
Excerpt: as §1

SETVI = assay: Pre-emergence action against SETVI, 1280 g/ha; assay type: in vivo, Setaria viridis; settings: visual scoring after about 3 weeks vs untreated controls, 100% = plants have died, 0% = like control plants
Excerpt: as §1

ECHCG [12] = assay: Post-emergence action against ECHCG, 1.28 kg/ha; assay type: in vivo, Echinochloa crus-galli; settings: dosage 1280 g/ha, visual rating about 3 weeks after treatment vs untreated controls
Procedure: as §2

ALOMY [13] = assay: Post-emergence action against ALOMY, 1.28 kg/ha; assay type: in vivo, Alopecurus myosuroides; settings: dosage 1280 g/ha, visual rating about 3 weeks after treatment vs untreated controls
Procedure: as §2

VIOTR = assay: Pre-emergence action at 320 g/ha against VIOTR; assay type: in vivo, Viola tricolor; settings: dosage 320 g/ha
Excerpt: (§3) b) Seeds of monocotyledonous and dicotyledonous weed plants and crop plants are placed in plastic or organic planting pots and covered with soil. The compounds of the invention, formulated in the form of wettable powders (WP) or as emulsion concentrates (EC), are then applied onto the surface of the covering soil as aqueous suspension or emulsion with addition of 0.5% additive at a water application rate of 600 l/ha (converted). After the treatment, the pots are placed in a greenhouse and kept under good growth conditions for the trial plants. After about 3 weeks, the effect of the preparations is scored visually in comparison with untreated controls as percentages. For example, 100% activity=the plants have died, 0% activity=like control plants. Tables 13 to 26 below show the effects of selected compounds of the general formula (I) on various harmful plants and at an application rate corresponding to 320 g/ha, which were obtained by the experimental procedure mentioned above.

ALOMY [14] = assay: Pre-emergence action against ALOMY, 1280 g/ha; assay type: in vivo, Alopecurus myosuroides; settings: visual scoring after about 3 weeks vs untreated controls, 100% = plants have died, 0% = like control plants
Excerpt: as §1

DIGSA [15] = assay: Post-emergence action against DIGSA, 1.28 kg/ha; assay type: in vivo, Digitaria sanguinalis; settings: dosage 1280 g/ha, visual rating about 3 weeks after treatment vs untreated controls
Procedure: as §2

ALOMY [16] = assay: Pre-emergence action at 320 g/ha against ALOMY; assay type: in vivo, Alopecurus myosuroides; settings: scored visually after about 3 weeks vs untreated controls (100% = plants have died)
Excerpt: as §3

AMARE [17] = assay: Pre-emergence action at 320 g/ha against AMARE; assay type: in vivo, Amaranthus retroflexus; settings: visual scoring after about 3 weeks vs untreated controls
Excerpt: as §3

POLCO = assay: Pre-emergence action at 320 g/ha against POLCO; assay type: in vivo, Fallopia convolvulus (Polygonum convolvulus); settings: visual scoring after about 3 weeks vs untreated controls
Excerpt: as §3

STEME [18] = assay: Post-emergence action against STEME, 1.28 kg/ha; assay type: in vivo, Stellaria media; settings: dosage 1280 g/ha, visual rating about 3 weeks after treatment vs untreated controls (100% = plants died)
Procedure: as §2

| Structure (SMILES) | Pre-emergence action against ECHCG (ECHCG [1]) | Post-emergence action against AMARE (AMARE [2]) | Post-emergence action against MATIN (MATIN [3]) | Pre-emergence action against LOLRI (LOLRI) | Pre-emergence action against VERPE (VERPE [4]) | Pre-emergence action against AMARE (AMARE [5]) | Post-emergence action against POAAN (POAAN [6]) | Post-emergence action against ABUTH (ABUTH) | Pre-emergence action against STEME (STEME [7]) | Post-emergence action against VERPE (VERPE [8]) | Pre-emergence action against DIGSA (DIGSA [9]) | Pre-emergence action against POAAN (POAAN [10]) | Pre-emergence action against MATIN (MATIN [11]) | Pre-emergence action against SETVI (SETVI) | Post-emergence action against ECHCG (ECHCG [12]) | Post-emergence action against ALOMY (ALOMY [13]) | Pre-emergence action against ALOMY (ALOMY [14]) | further results |
| --- | --- | --- | --- | --- | --- | --- | --- | --- | --- | --- | --- | --- | --- | --- | --- | --- | --- | --- |
| O=C(O)COc1nn(-c2ccccc2F)c(-c2cnccn2)c1Br [Example I-003] | 90% | 100% | 90% | 90% | 90% | 90% | 100% | 90% | 100% | 90% | 90% | 100% | 90% | 90% | 90% |  |  |  |
| CCOC(=O)COc1nn(-c2ccccc2F)c(-c2cnccn2)c1Br [Example I-004] | 90% | 90% |  | 90% | 90% | 100% |  | 90% | 100% | 100% | 90% | 100% | 90% | 100% | 90% | 100% |  |  |
| COC(=O)C1CCCN(C(=O)COc2nn(-c3ccccc3F)c(-c3ccc(F)nc3)c2Br)C1 (stereo not shown) [Example X-018] |  |  |  |  |  |  |  |  |  |  |  |  |  |  |  |  |  | Pre-emergence action against VIOTR in % (VIOTR): 90% |
| CONC(=O)COc1nn(-c2ccccc2F)c(-c2ccc(F)cn2)c1Br [II-003] | 100% |  | 90% | 100% |  | 100% | 100% | 90% | 90% | 100% | 100% | 100% | 100% | 100% |  | 100% |  |  |
| CCOC(=O)COc1nn(-c2ccccc2F)c(-c2ccc(F)cn2)c1Br [II-014] | 100% | 90% | 90% | 100% | 100% | 90% | 90% | 90% | 90% | 90% | 100% | 100% | 100% | 90% |  |  | 100% | Post-emergence action against DIGSA (DIGSA [15]): 90% |
| CCOC(=O)COc1nn(-c2ccccc2F)c(-c2ccc([S+](C)[O-])nc2)c1Br (stereo not shown) [VII-044] |  |  |  |  |  |  |  |  |  |  |  |  |  |  |  |  |  | Pre-emergence action at 320 g/ha against ALOMY in % (ALOMY [16]): 90%; Pre-emergence action against VIOTR in % (VIOTR): 100%; Pre-emergence action against AMARE in % (AMARE [17]): 90%; Pre-emergence action against POLCO in % (POLCO): 100% |
| CSc1ccc(-c2c(Br)c(OCC(=O)O)nn2-c2ccccc2F)cn1 [VII-047] |  |  |  |  |  |  |  |  |  |  |  |  |  |  |  |  |  | Pre-emergence action against AMARE in % (AMARE [17]): 90% |
| COC(=O)COc1nn(-c2cc(F)ccc2F)c(-c2ccc(F)nc2)c1C#N [VII-063] |  | 100% | 90% | 100% | 100% | 100% | 100% |  | 100% | 90% | 100% | 100% | 90% | 100% |  | 100% | 100% | Post-emergence action against STEME (STEME [18]): 100% |
| O=C(COc1nn(-c2ccccc2F)c(-c2ccc(F)nc2)c1Br)OCc1ccco1 [VII-098] | 100% |  | 100% | 100% | 100% | 100% | 100% | 90% | 100% | 90% | 100% | 100% | 90% | 100% | 90% | 100% | 100% | Post-emergence action against DIGSA (DIGSA [15]): 100% |
| COC(=O)COc1nn(-c2ccccc2F)c(-c2ccc(F)nc2)c1SC [VII-123] |  | 90% | 90% | 90% | 90% | 90% | 100% | 90% | 90% | 90% | 100% | 100% | 100% |  | 100% | 90% |  |  |
| CS(=O)(=O)NC(=O)COc1nn(-c2ccccc2F)c(-c2ccnc(F)c2)c1Br [VIII-012] | 100% | 100% | 100% | 100% | 100% | 100% | 100% |  |  | 90% | 100% | 100% | 100% | 100% | 100% | 100% | 100% | Post-emergence action against STEME (STEME [18]): 90%; Post-emergence action against DIGSA (DIGSA [15]): 100% |
